Measured values reported in PubChem BioAssay (NCI).
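Tested at 5 concentrations; 48 h exposure; 96-well plates; endpoints linearly interpolated, else capped at highest concentration. GI50 = concentration required for 50% inhibition of growth. TGI is the concentration that stops growth completely.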

Tests used:
Assay in all cases: growth of human tumour cells (NCI), 48 h
UO-31 renal = tested on: UO-31 renal
SN12C renal = tested on: SN12C renal
SK-MEL-2 melanoma = tested on: SK-MEL-2 melanoma
CAKI-1 renal = tested on: CAKI-1 renal
T-47D breast = tested on: T-47D breast
OVCAR-3 ovarian = tested on: OVCAR-3 ovarian
OVCAR-4 ovarian = tested on: OVCAR-4 ovarian
NCI/ADR-RES ovarian = tested on: NCI/ADR-RES ovarian
SF-268 CNS = tested on: SF-268 CNS
SK-OV-3 ovarian = tested on: SK-OV-3 ovarian

SMILES	GI50 (UO-31 renal)	TGI (UO-31 renal)	GI50 (SN12C renal)	TGI (SN12C renal)	GI50 (SK-MEL-2 melanoma)	TGI (SK-MEL-2 melanoma)	GI50 (CAKI-1 renal)	TGI (CAKI-1 renal)	GI50 (T-47D breast)	TGI (T-47D breast)	GI50 (OVCAR-3 ovarian)	TGI (OVCAR-3 ovarian)	GI50 (OVCAR-4 ovarian)	TGI (OVCAR-4 ovarian)	GI50 (NCI/ADR-RES ovarian)	TGI (NCI/ADR-RES ovarian)	GI50 (SF-268 CNS)	TGI (SF-268 CNS)	GI50 (SK-OV-3 ovarian)	TGI (SK-OV-3 ovarian)
CCN(CC)CCn1c(=O)c2cc(OC)c(OC)cc2c2ccc3cc4c(cc3c21)OCO4	0.405 µM	17.3 µM	0.455 µM	20.2 µM	> 100 µM	> 100 µM	0.222 µM	15.1 µM	0.26 µM	26.4 µM	7.57 µM	25.5 µM	0.477 µM	19.9 µM	0.42 µM	43.9 µM	0.228 µM	37.8 µM	–	–
CCOC(=O)Nc1ccc2c(c1)C(=O)N(CC)c1ccccc1O2	0.379 µM	> 100 µM	0.449 µM	> 100 µM	0.102 µM	> 100 µM	0.179 µM	> 100 µM	–	–	0.0788 µM	0.612 µM	0.237 µM	> 100 µM	0.124 µM	> 100 µM	0.26 µM	> 100 µM	0.157 µM	> 100 µM
O=C(O)CCSC(=O)Nc1cccc2ccccc12	–	> 100 µM	–	> 100 µM	–	–	–	> 100 µM	–	–	–	> 100 µM	–	> 100 µM	–	–	–	> 100 µM	–	> 100 µM
O=C(CC1(O)C(=O)Nc2ccccc21)c1ccc(Cl)cc1Cl (stereo unspecified)	–	> 100 µM	–	> 100 µM	–	> 100 µM	–	> 100 µM	–	–	–	> 100 µM	–	> 100 µM	–	–	–	> 100 µM	–	> 100 µM
CCC[CH2][Sn]1([CH2]CCC)[O]CC[S]1	1.28 µM	2.54 µM	0.818 µM	2.12 µM	0.298 µM	1.01 µM	0.221 µM	1.51 µM	–	–	0.848 µM	2.13 µM	1.57 µM	3 µM	–	–	0.363 µM	1.44 µM	1.61 µM	2.96 µM
O=C1NC2(CCCC2)C2CCCCC12O (stereo unspecified)	–	> 100 µM	–	> 100 µM	–	> 100 µM	–	> 100 µM	–	–	–	> 100 µM	–	> 100 µM	–	–	–	> 100 µM	–	> 100 µM
C[C@]12CCc3nonc3C1CC[C@@H]1C2CC[C@@]2(C)C1CC[C@@H]2O (stereo partly specified)	–	> 100 µM	–	> 100 µM	–	> 100 µM	–	> 100 µM	–	–	–	> 100 µM	–	> 100 µM	–	–	–	> 100 µM	–	> 100 µM
CC(=O)NCc1c(C(N)=O)ncn1Cc1ccccc1	–	–	–	> 100 µM	–	–	–	> 100 µM	–	–	–	> 100 µM	–	> 100 µM	–	–	–	–	–	> 100 µM
CCN(CC)CCCNc1n[n+]([O-])c2ccccc2[n+]1[O-]	–	> 100 µM	–	27.9 µM	–	21.5 µM	–	> 100 µM	–	68.1 µM	–	–	–	> 100 µM	–	> 100 µM	–	> 100 µM	–	–
